Source: patent publication US20240100058A1, “METHOD FOR SELECTING, ASSESSING, OR PRODUCING SODIUM LAURYL SULFATE AS RAW MATERIAL FOR PHARMACEUTICAL FORMULATION, OR FORMULATION OR THE LIKE CONTAINING SAME” (Chugai Seiyaku Kabushiki Kaisha, priority 2019, published 2024)

How the values were obtained:
Format in all cases: physicochemical
[1] = Sulfate ion quantification by ion chromatography in sodium lauryl sulfate after accelerated storage; details: for sulfate ion concentration in sample solution: after 4-day storage at 70° C., relative humidity about 10%, about 5 mg sample in 50 mL water
Protocol: (§1) A sample of sodium lauryl sulfate (about 250 mg) was placed in a glass vial and stored in an open system at a temperature of 70° C. and a relative humidity of about 10% (a saturated aqueous solution of LiCl). Samples of before storage, stored for a single day, 2 days, 3 days, 4 days, 7 days and 11 days were subjected to X-ray powder diffraction performed in the conditions of Example 1.
Sulfate ions generated by decomposition of sodium lauryl sulfate in the samples of Lot 1 and Lot 2 after 4-day storage were quantified by ion chromatography shown below.
Sodium lauryl sulfate (about 5 mg) was weighed and water was added up to 50 mL. The solution was irradiated with ultrasonic wave for 15 minutes and filtered by a membrane filter (DISMIC-25HP PTFE 0.45 μm HYDROPHILIC, manufactured by ADVANTEC). The filtrate was passed through a solid-phase extraction cartridge (Dionex OnGuard II RP, manufactured by ThermoFisher Scientific) washed and the eluate was used as a sample solution. Separately, solutions having a sulfate ion concentration of 1 mg/L, 2 mg/L, 3 mg/L, 4 mg/L and 5 mg/L were prepared by use of the sulfate ion standard solution (1 g/L, manufactured by Wako Pure Chemical Industries Ltd.) for ion chromatography and used as the standard solutions. […]
The concentration of sulfate ion in a sample solution was calculated based on the calibration curve prepared by using the standard solutions.
Sodium lauryl sulfate is usually stored at room temperature; however, there are possible cases, e.g., transportation, where it is stored at a higher temperature than room temperature. […] After storage, sulfate ions generated by decomposition of sodium lauryl sulfate in the sample were quantified by ion chromatography shown in Example 4.

[2] = X-ray powder diffraction of sodium lauryl sulfate lots after storage under accelerated condition; details: for storage period at which new XRPD peaks were first detected: open system, sulfate
[3] = as above; details: for storage period in which XRPD peaks of sodium lauryl sulfate-dodecanol complex were observed: 70° C., relative humidity about 10% (saturated LiCl), open system, stored up to day 11; for storage period at which new XRPD peaks (2θ around 4.9° and 7.4°) were first detected: airtight system, up to 4 days
Protocol: Samples (appropriate amount) of different lots, Lot 1 (production date: 2015.12.22) and Lot 2 (production date: 2017.3.10)) of sodium lauryl sulfate, which were obtained from a single manufacturer and produced on different days, were placed in glass vials and stored in an airtight system under condition 1A (temperature 60° C.) and condition 1B (temperature 70° C.). Samples before storage, stored for 3 days and 4 day were subjected to X-ray powder diffraction (XRPD). Measurement was performed in the conditions shown below.
X-ray powder diffraction method: • Measuring device: X′Pert-Pro MPD (manufactured by PANalytical) • Anti-cathode: Cu • Tube voltage: 45 kV • Tube current: 40 mA • Step width: 0.02 • Scan axis: 20 • Sampling time per step: 43 seconds • Scan range: 3 to 40°
as §1

[4] = condition 2A: 70° C., relative humidity about 79% (saturated NaCl)
[5] = condition 2B: 70° C., relative humidity about 10% (saturated LiCl), up to 6 days

Compound	sulfate ion concentration in sample solution [1] [mg/L]	storage period at which new XRPD peaks were first detected [2, 4] [days]	storage period at which new XRPD peaks were first detected [2, 5] [days]	storage period in which XRPD peaks of sodium lauryl sulfate-dodecanol complex were observed [3] [days]	storage period at which new XRPD peaks (2θ around 4.9° and 7.4°) were first detected ([3]; condition 1A: 60° C.) [days]	storage period at which new XRPD peaks (2θ around 4.9° and 7.4°) were first detected ([3]; condition 1B: 70° C.) [days]	physical state of sample after storage ([2]; condition 2A: 70° C., relative humidity about 79%, 2-days and 3-days storage)	sulfate ion concentration detected by ion chromatography ([1]; prior storage under Conditions 1-17 of Table 1 (30-40° C. 45 days plus up to 48 hours at up to 60° C.), then 70° C., about 10% RH, 4 days) [mg/L]
CCCCCCCCCCCCOS(=O)(=O)[O-].[Na+] [Lot 2, sodium lauryl sulfate]	≤ 1	3	> 6	> 11	> 4	> 4		
CCCCCCCCCCCCOS(=O)(=O)[O-].[Na+] [Lot 1, sodium lauryl sulfate]	24.1	1	3	≥ 3	4	3	changed to a liquid state	
CCCCCCCCCCCCOS(=O)(=O)[O-].[Na+] [Lot 5, sodium lauryl sulfate]								≤ 1
